In PubChem BioAssay AID1918994 (Molecular Pharmacology Branch, DTP, NCI, 2023):

System: 292921-168-R-J2-PDC complex spheroid growth
Experiment: Anticancer human tumor 292921-168-R-J2-PDC patient-derived pancreatic carcinoma cell line growth inhibition [AhR]
Settings: for IC50: curve of first compound; for viability, T/C: stronger effect = lower value
Summary of the method: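 Spheroids combined tumor cells with HUVEC endothelial cells and human MSCs as stroma. AhR antagonists were paired with standard or investigational drugs, each dosed in half-log steps down from near clinical Cmax, or from 10 microM where Cmax was unknown.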

[1] = second compound 0.1 µM, first compound 0.0316 µM
[2] = second compound 0.1 µM, first compound 0.1 µM
[3] = second compound 0.1 µM, first compound 0.316 µM
[4] = second compound 0.1 µM, first compound 1 µM
[5] = second compound 0.1 µM, first compound 3.16 µM
[6] = second compound 0.1 µM, first compound 10 µM
[7] = second compound 0.316 µM, first compound 0.0316 µM
[8] = second compound 0.316 µM, first compound 0.1 µM
[9] = second compound 0.316 µM, first compound 0.316 µM
[10] = second compound 0.316 µM, first compound 1 µM
[11] = second compound 0.316 µM, first compound 3.16 µM
[12] = second compound 0.316 µM, first compound 10 µM
[13] = second compound 1 µM, first compound 0.0316 µM
[14] = second compound 1 µM, first compound 0.1 µM
[15] = second compound 1 µM, first compound 0.316 µM
[16] = second compound 1 µM, first compound 1 µM
[17] = second compound 1 µM, first compound 3.16 µM
[18] = second compound 1 µM, first compound 10 µM
[19] = second compound 3.16 µM, first compound 0.0316 µM
[20] = second compound 3.16 µM, first compound 0.1 µM
[21] = second compound 3.16 µM, first compound 0.316 µM
[22] = second compound 3.16 µM, first compound 1 µM
[23] = second compound 3.16 µM, first compound 3.16 µM
[24] = second compound 3.16 µM, first compound 10 µM
[25] = second compound 10 µM, first compound 0.0316 µM
[26] = second compound 10 µM, first compound 0.1 µM
[27] = second compound 10 µM, first compound 0.316 µM
[28] = second compound 10 µM, first compound 1 µM
[29] = second compound 10 µM, first compound 3.16 µM
[30] = second compound 10 µM, first compound 10 µM
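Further: spheroids exposed to compounds for seven days after three days of growth.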

## CC1(C)CCC(CN2CCN(c3ccc(C(=O)NS(=O)(=O)c4ccc(NCC5CCOCC5)c([N+](=O)[O-])c4)c(Oc4cnc5[nH]ccc5c4)c3)CC2)=C(c2ccc(Cl)cc2)C1 + Cc1cncc(-c2nc(NCCc3c[nH]c4ccccc34)c3ncn(C(C)C)c3n2)c1
Second compound 0.1 µM
  IC50: 6870 nM
Second compound 0.316 µM
  IC50: 6720 nM
Second compound 1 µM
  IC50: 6790 nM
Second compound 3.16 µM
  IC50: 5560 nM
Second compound 10 µM
  IC50: 3330 nM
[1]
  viability, T/C: 101%
[2]
  viability, T/C: 96.2%
[3]
  viability, T/C: 92.9%
[4]
  viability, T/C: 105%
[5]
  viability, T/C: 99.4%
[6]
  viability, T/C: 26.2%
[7]
  viability, T/C: 96.6%
[8]
  viability, T/C: 104%
[9]
  viability, T/C: 105%
[10]
  viability, T/C: 90.6%
[11]
  viability, T/C: 95.1%
[12]
  viability, T/C: 26.1%
[13]
  viability, T/C: 80.2%
[14]
  viability, T/C: 91.7%
[15]
  viability, T/C: 90.1%
[16]
  viability, T/C: 96.5%
[17]
  viability, T/C: 102%
[18]
  viability, T/C: 28.6%
[19]
  viability, T/C: 67.9%
[20]
  viability, T/C: 76.3%
[21]
  viability, T/C: 80.6%
[22]
  viability, T/C: 77.6%
[23]
  viability, T/C: 79.7%
[24]
  viability, T/C: 22.3%
[25]
  viability, T/C: 54.9%
[26]
  viability, T/C: 52.7%
[27]
  viability, T/C: 52.9%
[28]
  viability, T/C: 50%
[29]
  viability, T/C: 51.4%
[30]
  viability, T/C: 26.8%

## CCN(c1cc(-c2ccc(CN3CCOCC3)cc2)cc(C(=O)NCc2c(C)cc(C)[nH]c2=O)c1C)C1CCOCC1 + Cc1cncc(-c2nc(NCCc3c[nH]c4ccccc34)c3ncn(C(C)C)c3n2)c1
Second compound 0.1 µM
  IC50: > 3000 nM
Second compound 0.316 µM
  IC50: > 3000 nM
Second compound 1 µM
  IC50: > 3000 nM
Second compound 3.16 µM
  IC50: > 3000 nM
Second compound 10 µM
  IC50: 34 nM
Second compound 0.1 µM, first compound 0.00949 µM
  viability, T/C: 93.8%
Second compound 0.1 µM, first compound 0.03 µM
  viability, T/C: 94.5%
Second compound 0.1 µM, first compound 0.0949 µM
  viability, T/C: 92.7%
Second compound 0.1 µM, first compound 0.3 µM
  viability, T/C: 84.9%
Second compound 0.1 µM, first compound 0.949 µM
  viability, T/C: 82.7%
Second compound 0.1 µM, first compound 3 µM
  viability, T/C: 67.3%
Second compound 0.316 µM, first compound 0.00949 µM
  viability, T/C: 94.7%
Second compound 0.316 µM, first compound 0.03 µM
  viability, T/C: 91.1%
Second compound 0.316 µM, first compound 0.0949 µM
  viability, T/C: 90%
Second compound 0.316 µM, first compound 0.3 µM
  viability, T/C: 77.6%
Second compound 0.316 µM, first compound 0.949 µM
  viability, T/C: 78.5%
Second compound 0.316 µM, first compound 3 µM
  viability, T/C: 83.3%
Second compound 1 µM, first compound 0.00949 µM
  viability, T/C: 87.2%
Second compound 1 µM, first compound 0.03 µM
  viability, T/C: 88.8%
Second compound 1 µM, first compound 0.0949 µM
  viability, T/C: 84.9%
Second compound 1 µM, first compound 0.3 µM
  viability, T/C: 76.4%
Second compound 1 µM, first compound 0.949 µM
  viability, T/C: 75.4%
Second compound 1 µM, first compound 3 µM
  viability, T/C: 75.8%
Second compound 3.16 µM, first compound 0.00949 µM
  viability, T/C: 64.4%
Second compound 3.16 µM, first compound 0.03 µM
  viability, T/C: 66.7%
Second compound 3.16 µM, first compound 0.0949 µM
  viability, T/C: 73.2%
Second compound 3.16 µM, first compound 0.3 µM
  viability, T/C: 64.2%
Second compound 3.16 µM, first compound 0.949 µM
  viability, T/C: 62.8%
Second compound 3.16 µM, first compound 3 µM
  viability, T/C: 52.7%
Second compound 10 µM, first compound 0.00949 µM
  viability, T/C: 49.2%
Second compound 10 µM, first compound 0.03 µM
  viability, T/C: 49.6%
Second compound 10 µM, first compound 0.0949 µM
  viability, T/C: 52.7%
Second compound 10 µM, first compound 0.3 µM
  viability, T/C: 49.3%
Second compound 10 µM, first compound 0.949 µM
  viability, T/C: 41.1%
Second compound 10 µM, first compound 3 µM
  viability, T/C: 45.3%

## Cn1ncnc1C1c2n[nH]c(=O)c3cc(F)cc(c23)NC1c1ccc(F)cc1 (stereo not given) + Cc1cncc(-c2nc(NCCc3c[nH]c4ccccc34)c3ncn(C(C)C)c3n2)c1
Second compound 0.1 µM
  IC50: > 100 nM
Second compound 0.316 µM
  IC50: > 100 nM
Second compound 1 µM
  IC50: > 100 nM
Second compound 3.16 µM
  IC50: > 100 nM
Second compound 10 µM
  IC50: 35.1 nM
Second compound 0.1 µM, first compound 0.000316 µM
  viability, T/C: 94.3%
Second compound 0.1 µM, first compound 0.001 µM
  viability, T/C: 96.7%
Second compound 0.1 µM, first compound 0.00316 µM
  viability, T/C: 86.5%
Second compound 0.1 µM, first compound 0.01 µM
  viability, T/C: 95.5%
[1]
  viability, T/C: 83.9%
[2]
  viability, T/C: 82.6%
Second compound 0.316 µM, first compound 0.000316 µM
  viability, T/C: 91.4%
Second compound 0.316 µM, first compound 0.001 µM
  viability, T/C: 102%
Second compound 0.316 µM, first compound 0.00316 µM
  viability, T/C: 83.6%
Second compound 0.316 µM, first compound 0.01 µM
  viability, T/C: 89.2%
[7]
  viability, T/C: 83.7%
[8]
  viability, T/C: 76.7%
Second compound 1 µM, first compound 0.000316 µM
  viability, T/C: 80.8%
Second compound 1 µM, first compound 0.001 µM
  viability, T/C: 87.3%
Second compound 1 µM, first compound 0.00316 µM
  viability, T/C: 85.6%
Second compound 1 µM, first compound 0.01 µM
  viability, T/C: 73.8%
[13]
  viability, T/C: 74.5%
[14]
  viability, T/C: 81.9%
Second compound 3.16 µM, first compound 0.000316 µM
  viability, T/C: 68.7%
Second compound 3.16 µM, first compound 0.001 µM
  viability, T/C: 71.4%
Second compound 3.16 µM, first compound 0.00316 µM
  viability, T/C: 72.3%
Second compound 3.16 µM, first compound 0.01 µM
  viability, T/C: 56.2%
[19]
  viability, T/C: 60.1%
[20]
  viability, T/C: 66.2%
Second compound 10 µM, first compound 0.000316 µM
  viability, T/C: 50.8%
Second compound 10 µM, first compound 0.001 µM
  viability, T/C: 54.4%
Second compound 10 µM, first compound 0.00316 µM
  viability, T/C: 55.5%
Second compound 10 µM, first compound 0.01 µM
  viability, T/C: 52.5%
[25]
  viability, T/C: 47.7%
[26]
  viability, T/C: 48%

## NS(=O)(=O)OCC1CC(n2ccc3c(NC4CCc5ccccc54)ncnc32)CC1O (stereo not given) + Cc1cncc(-c2nc(NCCc3c[nH]c4ccccc34)c3ncn(C(C)C)c3n2)c1
Second compound 0.1 µM
  IC50: 227 nM
Second compound 0.316 µM
  IC50: 224 nM
Second compound 1 µM
  IC50: 231 nM
Second compound 3.16 µM
  IC50: 229 nM
Second compound 10 µM
  IC50: 221 nM
[1]
  viability, T/C: 136%
[2]
  viability, T/C: 111%
[3]
  viability, T/C: 25.1%
[4]
  viability, T/C: 6.77%
[5]
  viability, T/C: 5.38%
[6]
  viability, T/C: 5.4%
[7]
  viability, T/C: 133%
[8]
  viability, T/C: 108%
[9]
  viability, T/C: 25.1%
[10]
  viability, T/C: 7.33%
[11]
  viability, T/C: 5.81%
[12]
  viability, T/C: 5.63%
[13]
  viability, T/C: 117%
[14]
  viability, T/C: 104%
[15]
  viability, T/C: 30%
[16]
  viability, T/C: 6.44%
[17]
  viability, T/C: 6.99%
[18]
  viability, T/C: 7.06%
[19]
  viability, T/C: 111%
[20]
  viability, T/C: 93.7%
[21]
  viability, T/C: 33.1%
[22]
  viability, T/C: 8.82%
[23]
  viability, T/C: 7.53%
[24]
  viability, T/C: 6.05%
[25]
  viability, T/C: 69.9%
[26]
  viability, T/C: 76.7%
[27]
  viability, T/C: 39.5%
[28]
  viability, T/C: 13%
[29]
  viability, T/C: 9.88%
[30]
  viability, T/C: 7.28%
